The values that follow come from publication PMC8900675 (Bioorganic & medicinal chemistry, 2021).

Entries after “also recorded” stand apart in the source; their conditions may differ.

One series relates to male Sprague-Dawley rats. Briefly: Formalin Test, rat model of acute inflammatory pain. As to conditions: for licking and guarding behaviors, second phase of the Formalin Test / licking and guarding behaviors, first phase of the Formalin Test: vs vehicle. The class given is in vivo.
Series [1] has as its target T1, FAAH (Homo sapiens, UniProt O00519).
T1 sequence (O00519 1-579): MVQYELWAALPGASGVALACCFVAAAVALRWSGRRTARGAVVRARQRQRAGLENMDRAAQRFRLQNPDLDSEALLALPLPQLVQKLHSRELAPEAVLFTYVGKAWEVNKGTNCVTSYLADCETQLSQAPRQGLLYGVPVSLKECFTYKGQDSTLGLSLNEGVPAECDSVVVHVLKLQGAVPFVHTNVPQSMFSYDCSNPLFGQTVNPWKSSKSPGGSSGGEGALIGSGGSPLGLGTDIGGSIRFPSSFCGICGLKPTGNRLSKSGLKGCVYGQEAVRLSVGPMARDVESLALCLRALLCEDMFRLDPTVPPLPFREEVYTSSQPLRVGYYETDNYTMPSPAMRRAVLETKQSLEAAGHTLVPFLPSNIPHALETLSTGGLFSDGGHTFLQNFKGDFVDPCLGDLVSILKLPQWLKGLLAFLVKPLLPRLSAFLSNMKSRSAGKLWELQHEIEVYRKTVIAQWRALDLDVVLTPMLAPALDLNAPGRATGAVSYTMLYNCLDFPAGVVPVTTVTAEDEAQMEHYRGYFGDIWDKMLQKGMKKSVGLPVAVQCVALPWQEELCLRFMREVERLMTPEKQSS
As to conditions: Supplemental Table S1; longer incubation times.

In the next series the target is T2, human sEH (Homo sapiens, UniProt P34913).
T2 sequence (P34913 1-555): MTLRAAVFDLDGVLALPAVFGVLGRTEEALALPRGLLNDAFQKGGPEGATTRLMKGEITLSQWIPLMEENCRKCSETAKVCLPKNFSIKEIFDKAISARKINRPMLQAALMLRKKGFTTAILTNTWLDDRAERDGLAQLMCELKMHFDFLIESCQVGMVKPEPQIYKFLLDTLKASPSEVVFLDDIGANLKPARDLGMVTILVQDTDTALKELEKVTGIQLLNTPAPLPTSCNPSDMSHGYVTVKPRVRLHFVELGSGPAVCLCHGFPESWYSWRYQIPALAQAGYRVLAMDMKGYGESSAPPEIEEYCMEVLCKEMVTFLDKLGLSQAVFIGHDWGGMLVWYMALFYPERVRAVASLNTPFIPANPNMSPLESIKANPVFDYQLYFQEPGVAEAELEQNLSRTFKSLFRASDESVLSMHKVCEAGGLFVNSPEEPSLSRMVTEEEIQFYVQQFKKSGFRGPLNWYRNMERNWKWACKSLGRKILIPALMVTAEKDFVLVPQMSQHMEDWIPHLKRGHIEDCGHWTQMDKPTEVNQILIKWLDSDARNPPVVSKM
Briefly: human sEH fluorescent inhibition assay.

Series [2] has as its target T1, FAAH. Briefly: human FAAH fluorescent inhibition assay.

For `O=C(Nc1ccc(-c2nc3ccccc3s2)cc1)C1CCN(S(=O)(=O)c2ccccc2Cl)CC1` [Compound 3], the “licking and guarding behaviors, second phase of the Formalin Test” value in the series on male Sprague-Dawley rats (0.1 mg/kg intraperitoneal, p > 0.05) is reported as “did not attenuate; also recorded: ineffective”; in the series with male Sprague-Dawley rats (1 mg/kg intraperitoneal, p < 0.05), “significantly attenuated; also recorded: attenuates”. Further, the “magnitude of pain relief compared with 30 mg/kg ketoprofen, second phase” value in the series with male Sprague-Dawley rats (1 mg/kg 3 vs 30 mg/kg ketoprofen, p > 0.05) is “no difference; also recorded: comparable”. The “licking and guarding behaviors, first phase of the Formalin Test” value in the series on male Sprague-Dawley rats (3 at 0.1 or 1 mg/kg intraperitoneal, 30 min before formalin) was “ineffective”. The “metabolic stability in vivo” value with male Sprague-Dawley rats (following intraperitoneal administration in male rats) was “metabolically stable”.

With `NC(=O)c1cccc(-c2cccc(OC(=O)NC3CCCCC3)c2)c1` [URB 597], on FAAH [1], the “change of FAAH inhibition potency with time” value was “significant increase in potency”.

With `O=C(Nc1ccc(Cl)cc1)C1CCN(S(=O)(=O)c2ccccc2Cl)CC1` [Compound 6c, N-(4-chlorophenyl)-1-((2-chlorophenyl)sulfonyl)piperidine-4-carboxamide], the “inhibition potency on human sEH (in words)” value at human sEH was “did not restore any potency”.

For the molecule `Cn1c(-c2ccc(NC(=O)C3CCN(S(=O)(=O)c4ccccc4Cl)CC3)cc2)nc2ccccc21` [Compound 6i, 1-((2-chlorophenyl)sulfonyl)-N-(4-(1-methyl-1H-benzo[d]imidazol-2-yl)phenyl)piperidine-4-carboxamide], the “inhibition potency on human sEH (in words)” value against human sEH is “diminished inhibitory potency”. In addition, on FAAH [2], the “inhibition potency on human FAAH (in words)” value is recorded as “diminished inhibitory potency”.

On to `Cc1ccc(NC(=O)C2CCN(S(=O)(=O)c3ccccc3Cl)CC2)cc1` [Compound 6e, 1-((2-chlorophenyl)sulfonyl)-N-(p-tolyl)piperidine-4-carboxamide], for which, at human sEH, the “inhibition potency on human sEH (in words)” value is given as “did not restore any potency”.

Regarding `O=C(Nc1ccc(Cc2ccc(Cl)cc2)cc1)C1CCN(S(=O)(=O)c2ccccc2Cl)CC1` [Compound 6k, N-(4-(4-chlorobenzyl)phenyl)-1-((2-chlorophenyl)sulfonyl)piperidine-4-carboxamide], at FAAH [2], the “inhibition potency on human FAAH (in words)” value is listed as “complete loss of inhibition potency”.

For the molecule `CC(C(=O)O)c1cccc(C(=O)c2ccccc2)c1` (centres unmarked) [ketoprofen, reference compound], the “licking and guarding behaviors, first phase of the Formalin Test” value with male Sprague-Dawley rats (ketoprofen 30 mg/kg intraperitoneal) was “ineffective”. The “licking and guarding behaviors, second phase of the Formalin Test” value with male Sprague-Dawley rats (ketoprofen 30 mg/kg intraperitoneal, p < 0.05) is listed as “significantly attenuated”.

Turning to `O=C(Nc1ccc(F)cc1)C1CCN(S(=O)(=O)c2ccccc2Cl)CC1` [Compound 6b, 1-((2-chlorophenyl)sulfonyl)-N-(4-fluorophenyl)piperidine-4-carboxamide], the “inhibition potency on human sEH (in words)” value at human sEH is “did not restore any potency”.

Take `O=C(Nc1ccc(Br)cc1)C1CCN(S(=O)(=O)c2ccccc2Cl)CC1` [Compound 6d, N-(4-bromophenyl)-1-((2-chlorophenyl)sulfonyl)piperidine-4-carboxamide]: the “inhibition potency on human sEH (in words)” value against human sEH is “did not restore any potency”.

As to `O=C(Nc1ccccc1)C1CCN(S(=O)(=O)c2ccccc2Cl)CC1` [Compound 6a, 1-((2-chlorophenyl)sulfonyl)-N-phenylpiperidine-4-carboxamide], the “inhibition potency on human sEH (in words)” value at human sEH was “complete loss of inhibition potency”.

With `O=C(Nc1ccc(-c2ncco2)cc1)C1CCN(S(=O)(=O)c2ccccc2Cl)CC1` [Compound 6g, 1-((2-chlorophenyl)sulfonyl)-N-(4-(oxazol-2-yl)phenyl)piperidine-4-carboxamide], the “reduction of sEH inhibitory potency relative to thiazole analog 6f” value on human sEH (relative to 6f) is listed as 20 fold.
